# Test results taken from PubChem BioAssay (NCI).
#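 Exposure lasted 48 hours, with cells grown in 96-well plates and compounds tested at five concentrations. TGI denotes the concentration required for complete inhibition of growth.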
# Key:
# Test in all cases: growth of human tumour cells (NCI), 48 h
# SNB-19 CNS = system: SNB-19 CNS
# SK-OV-3 ovarian = system: SK-OV-3 ovarian
# 786-0 renal = system: 786-0 renal
# OVCAR-5 ovarian = system: OVCAR-5 ovarian
# MDA-N = system: MDA-N
# UACC-257 melanoma = system: UACC-257 melanoma
# NCI/ADR-RES ovarian = system: NCI/ADR-RES ovarian
# OVCAR-3 ovarian = system: OVCAR-3 ovarian
# T-47D breast = system: T-47D breast
# A549 NSCLC = system: A549 NSCLC
# HCT-15 colon = system: HCT-15 colon
# A498 renal = system: A498 renal
# BT-549 breast = system: BT-549 breast
# TK-10 renal = system: TK-10 renal
# ACHN renal = system: ACHN renal
# SR leukemia = system: SR leukemia
# NCI-H226 lung = system: NCI-H226 lung
# IGROV1 ovarian = system: IGROV1 ovarian
# HOP-92 NSCLC = system: HOP-92 NSCLC
# MALME-3M melanoma = system: MALME-3M melanoma
smiles,measurement,setting,value
CCOC(=O)C1=COC(C)(c2ccccc2)CC1=O (stereo unspecified),TGI,SNB-19 CNS,> 100 µM
same,TGI,SK-OV-3 ovarian,> 100 µM
same,TGI,786-0 renal,> 100 µM
same,TGI,OVCAR-5 ovarian,> 100 µM
same,TGI,MDA-N,> 100 µM
same,TGI,UACC-257 melanoma,> 100 µM
same,TGI,NCI/ADR-RES ovarian,> 100 µM
same,TGI,OVCAR-3 ovarian,> 100 µM
same,TGI,T-47D breast,> 100 µM
same,TGI,A549 NSCLC,> 100 µM
same,TGI,HCT-15 colon,> 100 µM
same,TGI,A498 renal,> 100 µM
same,TGI,BT-549 breast,> 100 µM
same,TGI,TK-10 renal,> 100 µM
same,TGI,ACHN renal,> 100 µM
O=C1CCCCCC1CC(Sc1ccccc1)Sc1ccccc1 (stereo unspecified),TGI,SNB-19 CNS,> 100 µM
same,TGI,SR leukemia,> 100 µM
same,TGI,SK-OV-3 ovarian,> 100 µM
same,TGI,786-0 renal,> 100 µM
same,TGI,OVCAR-5 ovarian,> 100 µM
same,TGI,NCI-H226 lung,> 100 µM
same,TGI,MDA-N,> 100 µM
same,TGI,UACC-257 melanoma,> 100 µM
same,TGI,IGROV1 ovarian,> 100 µM
same,TGI,NCI/ADR-RES ovarian,> 100 µM
same,TGI,HOP-92 NSCLC,> 100 µM
same,TGI,OVCAR-3 ovarian,> 100 µM
same,TGI,MALME-3M melanoma,> 100 µM
same,TGI,T-47D breast,> 100 µM
same,TGI,A549 NSCLC,> 100 µM
same,TGI,HCT-15 colon,> 100 µM
same,TGI,A498 renal,> 100 µM
same,TGI,TK-10 renal,> 100 µM
same,TGI,ACHN renal,> 100 µM
Cc1sc(N)c(S(=O)(=O)c2ccccc2)c1C,TGI,SNB-19 CNS,> 100 µM
same,TGI,SR leukemia,> 100 µM
same,TGI,SK-OV-3 ovarian,> 100 µM
same,TGI,786-0 renal,> 100 µM
same,TGI,OVCAR-5 ovarian,> 100 µM
same,TGI,NCI-H226 lung,> 100 µM
same,TGI,UACC-257 melanoma,> 100 µM
same,TGI,IGROV1 ovarian,> 100 µM
same,TGI,NCI/ADR-RES ovarian,> 100 µM
same,TGI,HOP-92 NSCLC,> 100 µM
same,TGI,OVCAR-3 ovarian,> 100 µM
same,TGI,MALME-3M melanoma,> 100 µM
same,TGI,T-47D breast,> 100 µM
same,TGI,A549 NSCLC,> 100 µM
same,TGI,HCT-15 colon,> 100 µM
same,TGI,A498 renal,> 100 µM
same,TGI,BT-549 breast,> 100 µM
same,TGI,TK-10 renal,> 100 µM
same,TGI,ACHN renal,> 100 µM
Cn1c2ccccc2c2nc3ccccc3c(Cl)c21,TGI,SNB-19 CNS,> 100 µM
same,TGI,SR leukemia,> 100 µM
same,TGI,SK-OV-3 ovarian,> 100 µM
same,TGI,786-0 renal,> 100 µM
same,TGI,OVCAR-5 ovarian,> 100 µM
same,TGI,NCI-H226 lung,> 100 µM
same,TGI,UACC-257 melanoma,> 100 µM
same,TGI,IGROV1 ovarian,> 100 µM
same,TGI,NCI/ADR-RES ovarian,> 100 µM
same,TGI,OVCAR-3 ovarian,> 100 µM
same,TGI,MALME-3M melanoma,> 100 µM
same,TGI,A549 NSCLC,> 100 µM
same,TGI,HCT-15 colon,> 100 µM
same,TGI,A498 renal,> 100 µM
same,TGI,BT-549 breast,> 100 µM
same,TGI,TK-10 renal,> 100 µM
COc1ccc(N=Nc2ccc3oc(=O)c(C(=O)Nc4ccc(Cl)cc4)cc3c2)cc1,TGI,SR leukemia,> 10 µM
same,TGI,SK-OV-3 ovarian,> 10 µM
same,TGI,786-0 renal,> 10 µM
same,TGI,OVCAR-5 ovarian,> 10 µM
same,TGI,NCI-H226 lung,> 10 µM
same,TGI,MDA-N,> 10 µM
same,TGI,UACC-257 melanoma,> 10 µM
same,TGI,IGROV1 ovarian,> 10 µM
same,TGI,NCI/ADR-RES ovarian,> 10 µM
same,TGI,HOP-92 NSCLC,> 10 µM
same,TGI,OVCAR-3 ovarian,> 10 µM
same,TGI,MALME-3M melanoma,> 10 µM
same,TGI,T-47D breast,> 10 µM
same,TGI,HCT-15 colon,> 10 µM
same,TGI,A498 renal,> 10 µM
same,TGI,TK-10 renal,> 10 µM
same,TGI,ACHN renal,> 10 µM
CCCC(=O)Oc1ccc2c(C)cc(=O)oc2c1OC(=O)CCC,TGI,SNB-19 CNS,> 100 µM
same,TGI,SR leukemia,> 100 µM
same,TGI,SK-OV-3 ovarian,> 100 µM
same,TGI,786-0 renal,> 100 µM
same,TGI,OVCAR-5 ovarian,> 100 µM
same,TGI,NCI-H226 lung,> 100 µM
same,TGI,MDA-N,> 100 µM
same,TGI,UACC-257 melanoma,> 100 µM
same,TGI,IGROV1 ovarian,> 100 µM
same,TGI,NCI/ADR-RES ovarian,> 100 µM
same,TGI,HOP-92 NSCLC,99.6 µM
same,TGI,OVCAR-3 ovarian,> 100 µM
same,TGI,MALME-3M melanoma,> 100 µM
same,TGI,A549 NSCLC,> 100 µM
same,TGI,HCT-15 colon,> 100 µM
same,TGI,A498 renal,> 100 µM
same,TGI,TK-10 renal,> 100 µM
same,TGI,ACHN renal,> 100 µM
CC(=O)N/N=C1/CC[C@@]2(C)C(=CC[C@H]3C4CCC(C(C)CCCC(C)C)[C@@]4(C)CCC32)C1(C)C (stereo partly specified),TGI,SNB-19 CNS,> 100 µM
same,TGI,SR leukemia,> 100 µM
same,TGI,SK-OV-3 ovarian,> 100 µM
same,TGI,786-0 renal,> 100 µM
same,TGI,OVCAR-5 ovarian,> 100 µM
same,TGI,NCI-H226 lung,> 100 µM
same,TGI,UACC-257 melanoma,> 100 µM
same,TGI,IGROV1 ovarian,> 100 µM
same,TGI,NCI/ADR-RES ovarian,> 100 µM
same,TGI,HOP-92 NSCLC,> 100 µM
same,TGI,OVCAR-3 ovarian,> 100 µM
same,TGI,MALME-3M melanoma,> 100 µM
same,TGI,T-47D breast,> 100 µM
same,TGI,A549 NSCLC,> 100 µM
same,TGI,HCT-15 colon,> 100 µM
same,TGI,BT-549 breast,> 100 µM
same,TGI,TK-10 renal,> 100 µM
same,TGI,ACHN renal,> 100 µM
CC1CN=C(NS(=O)(=O)c2cc(C(=O)Nc3ccc(F)cc3)c(Cl)cc2S)NN1 (stereo unspecified),TGI,SNB-19 CNS,> 100 µM
same,TGI,SR leukemia,> 100 µM
same,TGI,SK-OV-3 ovarian,> 100 µM
same,TGI,786-0 renal,> 100 µM
same,TGI,OVCAR-5 ovarian,> 100 µM
same,TGI,NCI-H226 lung,> 100 µM
same,TGI,UACC-257 melanoma,> 100 µM
same,TGI,IGROV1 ovarian,> 100 µM
same,TGI,NCI/ADR-RES ovarian,> 100 µM
same,TGI,OVCAR-3 ovarian,> 100 µM
same,TGI,MALME-3M melanoma,70.1 µM
same,TGI,A549 NSCLC,> 100 µM
same,TGI,HCT-15 colon,> 100 µM
same,TGI,A498 renal,64.1 µM
same,TGI,BT-549 breast,> 100 µM
same,TGI,TK-10 renal,> 100 µM
same,TGI,ACHN renal,> 100 µM
CC(/C=N\NC(=S)N(C)C)=N/NC(=S)N(C)C,TGI,SNB-19 CNS,> 100 µM
same,TGI,SK-OV-3 ovarian,> 51.9 µM
same,TGI,786-0 renal,> 59.8 µM
same,TGI,OVCAR-5 ovarian,> 100 µM
same,TGI,NCI-H226 lung,13.9 µM
same,TGI,MDA-N,> 100 µM
same,TGI,UACC-257 melanoma,> 100 µM
same,TGI,IGROV1 ovarian,16.9 µM
same,TGI,HOP-92 NSCLC,31.2 µM
same,TGI,OVCAR-3 ovarian,> 22.8 µM
same,TGI,MALME-3M melanoma,> 34.2 µM
same,TGI,T-47D breast,2.78 µM
same,TGI,A549 NSCLC,> 100 µM
same,TGI,HCT-15 colon,> 54.3 µM
same,TGI,A498 renal,20.1 µM
same,TGI,BT-549 breast,> 47.7 µM
same,TGI,TK-10 renal,> 100 µM
CC1(C)N=C(C(=O)c2ccccc2)N(O)C1(O)c1ccccc1 (stereo unspecified),TGI,SNB-19 CNS,> 100 µM
same,TGI,SR leukemia,> 100 µM
same,TGI,SK-OV-3 ovarian,> 100 µM
same,TGI,786-0 renal,> 100 µM
same,TGI,OVCAR-5 ovarian,> 100 µM
same,TGI,NCI-H226 lung,> 100 µM
same,TGI,MDA-N,> 100 µM
same,TGI,UACC-257 melanoma,> 100 µM
same,TGI,IGROV1 ovarian,> 100 µM
same,TGI,NCI/ADR-RES ovarian,> 100 µM
same,TGI,HOP-92 NSCLC,> 100 µM
same,TGI,OVCAR-3 ovarian,> 100 µM
same,TGI,MALME-3M melanoma,> 100 µM
same,TGI,T-47D breast,> 100 µM
same,TGI,A549 NSCLC,> 100 µM
same,TGI,HCT-15 colon,> 100 µM
same,TGI,TK-10 renal,> 100 µM
same,TGI,ACHN renal,> 100 µM
CN(/N=C\c1ccc2ccccc2c1)C1=NCCN1,TGI,SR leukemia,56.6 µM
same,TGI,SK-OV-3 ovarian,> 100 µM
same,TGI,786-0 renal,47.4 µM
same,TGI,OVCAR-5 ovarian,> 100 µM
same,TGI,NCI-H226 lung,37.8 µM
same,TGI,UACC-257 melanoma,29.5 µM
same,TGI,IGROV1 ovarian,41.6 µM
same,TGI,NCI/ADR-RES ovarian,82.1 µM
same,TGI,HOP-92 NSCLC,9.02 µM
same,TGI,OVCAR-3 ovarian,99.6 µM
same,TGI,MALME-3M melanoma,29.7 µM
same,TGI,T-47D breast,75.9 µM
same,TGI,A549 NSCLC,36.3 µM
same,TGI,HCT-15 colon,> 100 µM
same,TGI,A498 renal,28.6 µM
same,TGI,BT-549 breast,29.9 µM
same,TGI,TK-10 renal,28.5 µM
same,TGI,ACHN renal,60 µM
NC(=S)N/N=c1\cc(C(=O)Nc2ccc([N+](=O)[O-])cc2[N+](=O)[O-])oc2ccccc12,TGI,SNB-19 CNS,> 100 µM
same,TGI,SK-OV-3 ovarian,> 100 µM
same,TGI,786-0 renal,> 100 µM
same,TGI,OVCAR-5 ovarian,> 100 µM
same,TGI,NCI-H226 lung,> 100 µM
same,TGI,MDA-N,> 100 µM
same,TGI,UACC-257 melanoma,> 100 µM
same,TGI,IGROV1 ovarian,> 100 µM
same,TGI,NCI/ADR-RES ovarian,> 100 µM
same,TGI,HOP-92 NSCLC,> 100 µM
same,TGI,OVCAR-3 ovarian,> 100 µM
same,TGI,A549 NSCLC,> 100 µM
same,TGI,HCT-15 colon,> 100 µM
same,TGI,BT-549 breast,> 100 µM
same,TGI,TK-10 renal,> 100 µM
same,TGI,ACHN renal,> 100 µM
CCN(CC)c1ccc2cc(C(=O)Nc3nc(C45CC6CC(CC(C6)C4)C5)cs3)c(=O)oc2c1,TGI,SNB-19 CNS,> 100 µM
same,TGI,SR leukemia,> 100 µM
same,TGI,786-0 renal,> 100 µM
same,TGI,OVCAR-5 ovarian,> 100 µM
same,TGI,NCI-H226 lung,> 100 µM
same,TGI,MDA-N,> 100 µM
same,TGI,UACC-257 melanoma,> 100 µM
same,TGI,IGROV1 ovarian,> 100 µM
same,TGI,NCI/ADR-RES ovarian,> 100 µM
same,TGI,HOP-92 NSCLC,> 100 µM
same,TGI,OVCAR-3 ovarian,> 100 µM
same,TGI,MALME-3M melanoma,> 100 µM
same,TGI,A549 NSCLC,> 100 µM
same,TGI,HCT-15 colon,> 100 µM
same,TGI,A498 renal,> 100 µM
same,TGI,BT-549 breast,> 100 µM
same,TGI,TK-10 renal,> 100 µM
same,TGI,ACHN renal,> 100 µM
